Earlier results, collected in patent US8759364B2, “Methods of treating bone mass diseases” (The Trustees of Columbia University in the City of New York, priority 2008, dated 2014).

Columns and labels:
[1] = tested on: Serotonin levels in the small intestine; conditions: mice, twice per day over 3-4 days, about 30-90 mg/kg; after six consecutive doses; cited from earlier work
brain-derived serotonin = conditions: mice, cited from earlier work
TPH2 = target: T1, TPH2 (Homo sapiens, UniProt Q8IWU9); conditions: cited from earlier work
T1 sequence (Q8IWU9 1-490): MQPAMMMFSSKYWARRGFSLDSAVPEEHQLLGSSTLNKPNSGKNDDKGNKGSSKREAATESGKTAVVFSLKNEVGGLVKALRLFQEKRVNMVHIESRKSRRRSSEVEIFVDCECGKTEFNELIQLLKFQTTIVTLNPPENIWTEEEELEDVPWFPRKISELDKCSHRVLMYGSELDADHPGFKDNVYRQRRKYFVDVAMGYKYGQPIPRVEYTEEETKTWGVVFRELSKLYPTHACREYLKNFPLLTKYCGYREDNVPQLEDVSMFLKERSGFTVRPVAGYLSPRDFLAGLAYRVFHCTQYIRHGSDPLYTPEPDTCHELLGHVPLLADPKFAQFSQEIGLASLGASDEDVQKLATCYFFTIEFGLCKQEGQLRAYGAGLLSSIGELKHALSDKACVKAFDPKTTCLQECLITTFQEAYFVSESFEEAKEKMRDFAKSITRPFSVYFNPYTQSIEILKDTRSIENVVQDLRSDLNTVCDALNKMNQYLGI

[2] = tested on: serotonin in the GI tract; conditions: cited from earlier work
brain serotonin levels = conditions: in the amounts administered to mice; cited from earlier work
[3] = oral, single dose 250 mg to 2,000 mg/day and multiple doses 250-1,000 mg/day; all dose levels; cited from earlier work
[4] = in vivo; cited from earlier work

Structure (SMILES)	Serotonin levels in the small intestine [1]	brain-derived serotonin (brain-derived serotonin; twice per day over 3-4 days, about 30-90 mg/kg)	crossing of the blood-brain barrier in vivo (brain-derived serotonin)	inhibition of TPH2 compared with TPH1 (TPH2)	serotonin in the GI tract reduced to fraction of normal levels ([2]; 135 mg/kg, po, qd)	dose response of GI tract serotonin reduction ([2]; mouse, in vivo)	brain serotonin levels (brain serotonin levels)	adverse events [3]	absorption from the GI tract [4]
Nc1nc(OC(c2ccc(-c3cccc(F)c3)cc2)C(F)(F)F)cc(-c2ccc(C[C@H](N)C(=O)O)cc2)n1 (stereo partly drawn) [LP-533401]	significantly lowered	unchanged	did not cross	as effectively as	less than ⅔	dose response curve	not affected	Infrequent	–
CC(C)NCC(O)COc1cccc2[nH]ccc12 (stereo not drawn) [Pindolol, pindolol]	–	–	–	–	–	–	–	–	beta blocker; rapidly and well
